Results: patent publication US20230157996A1, “SMALL-MOLECULE INHIBITOR TARGETING EB VIRUS NUCLEAR ANTIGEN PROTEIN, PREPARATION METHOD AND USE THEREOF” (priority 2020, published 2023)

What follows are molecules tested on C666-1 cells (assay: C666-1 cell viability single concentration (50 μM) inhibition rate (Resazurin)). Details: Homo sapiens, C6661, 72 h, 50 μM compound, 72 hours, C666-1 cells; read-out: C666-1 cell viability single concentration (50 μM) inhibition rate, Ratio* (Inh %).
Assay type: cell-based
How it was run: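 Resazurin fluorescence (560/590 nm, 3 h development) gave the proliferation inhibition rate, normalised to DMSO-treated and cell-free blank wells. Compound was tested at a single 50 μmol/L final concentration on C666-1 cells for 72 h at 37° C, with duplicate wells, after 24 h seeding.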

Structure (SMILES)	inhibition at 50 µM [%]
CCCNC(=S)Nc1ccc(OC2CN(c3cccc(C(=O)OC)c3-n3cccc3)C2)cc1 [Example 117, Methyl 3-(3-(4-(3-propylthioureido)phenoxy)azetidin-1-yl)-2-(1H-pyrrol-1-yl)benzoate]	> 50
COC(=O)c1cccc(N2CC(Oc3ccc(NC(=S)Nc4ccc(C(F)(F)F)cc4)cc3)C2)c1-n1cccc1 [Example 118, Methyl 2-(1H-pyrrol-1-yl)-3-(3-(4-(3-(4-(trifluoromethyl)phenyl)thioureido)phenoxy)azetidin-1-yl)benzoate]	> 50
COC(=O)c1cccc(N2CC(Oc3ccc(NC(=S)Nc4ccccc4OC)cc3)C2)c1-n1cccc1 [Example 119, Methyl 3-(3-(4-(3-(2-methoxyphenyl)thioureido)phenoxy)azetidin-1-yl)-2-(1H-pyrrol-1-yl)benzoate]	10 to 30
COC(=O)c1cccc(N2CC(Oc3ccc(NC(C)=O)cc3)C2)c1-n1cccc1 [Example 120, Methyl 3-(3-(4-acetylaminophenoxy)azetidin-1-yl)-2-(1H-pyrrol-1-yl)benzoate]	10 to 30
CC(=O)Nc1ccc(OC2CN(c3cccc(C(=O)O)c3-n3cccc3)C2)cc1 [Example 121, 3-(3-(4-acetylaminophenoxy)azetidin-1-yl)-2-(1H-pyrrol-1-yl)benzoic acid]	< 10
COC(=O)c1cccc(N2CC(Oc3ccc(NC(=O)c4cccs4)cc3)C2)c1-n1cccc1 [Example 122, Methyl 2-(1H-pyrrol-1-yl)-3-(3-(4-(thiophene-2-formamido)phenoxy)azetidin-1-yl)benzoate]	10 to 30
O=C(Nc1ccc(OC2CN(c3cccc(C(=O)O)c3-n3cccc3)C2)cc1)c1cccs1 [Example 123, 2-(1H-pyrrol-1-yl)-3-(3-(4-(thiophene-2-formamido)phenoxy)azetidin-1-yl)benzoic acid]	< 10
COC(=O)c1cccc(N2CC(Oc3ccc(N(S(C)(=O)=O)S(C)(=O)=O)cc3)C2)c1-n1cccc1 [Example 124, Methyl 3-(3-(4-(N-(mesyl)methylsulfonamido)phenoxy)azetidin-1-yl)-2-(1H-pyrrol-1-yl)benzoate]	10 to 30
CS(=O)(=O)Nc1ccc(OC2CN(c3cccc(C(=O)O)c3-n3cccc3)C2)cc1 [Example 125, 3-(3-(4-(methylsulfonamido)phenoxy)azetidin-1-yl)-2-(1H-pyrrol-1-yl)benzoic acid]	< 10
COC(=O)c1cccc(N2CC(Oc3ccc(NS(=O)(=O)C4CC4)cc3)C2)c1-n1cccc1 [Example 126, Methyl 3-(3-(4-(cyclopropylsulfonamido)phenoxy)azetidin-1-yl)-2-(1H-pyrrol-1-yl)benzoate]	> 50
O=C(O)c1cccc(N2CC(Oc3ccc(NS(=O)(=O)C4CC4)cc3)C2)c1-n1cccc1 [Example 127, 3-(3-(4-(cyclopropylsulfonamido)phenoxy)azetidin-1-yl)-2-(1H-pyrrol-1-yl)benzoic acid]	< 10
COC(=O)c1cccc(N2CC(Oc3ccc(NC(=O)Nc4ccc(Cl)cc4)cc3)C2)c1-n1cccc1 [Example 128, Methyl 3-(3-(4-(3-(4-chlorophenyl)ureido)phenoxy)azetidin-1-yl)-2-(1H-pyrrol-1-yl)benzoate]	< 10
O=C(Nc1ccc(Cl)cc1)Nc1ccc(OC2CN(c3cccc(C(=O)O)c3-n3cccc3)C2)cc1 [Example 129, 3-(3-(4-(3-(4-chlorophenyl)ureido)phenoxy)azetidin-1-yl)-2-(1H-pyrrol-1-yl)benzoic acid]	< 10
COC(=O)c1cccc(N2CC(Oc3ccc(NC(=O)NC4CCCCC4)cc3)C2)c1-n1cccc1 [Example 130, Methyl 3-(3-(4-(3-cyclohexylureido)phenoxy)azetidin-1-yl)-2-(1H-pyrrol-1-yl)benzoate]	< 10
O=C(Nc1ccc(OC2CN(c3cccc(C(=O)O)c3-n3cccc3)C2)cc1)NC1CCCCC1 [Example 131, 3-(3-(4-(3-cyclohexylureido)phenoxy)azetidin-1-yl)-2-(1H-pyrrol-1-yl)benzoic acid]	< 10
CCCCCCNC(=O)Nc1ccc(OC2CN(c3cccc(C(=O)OC)c3-n3cccc3)C2)cc1 [Example 132, Methyl 3-(3-(4-(3-hexylureido)phenoxy)azetidin-1-yl)-2-(1H-pyrrol-1-yl)benzoate]	< 10
COC(=O)c1cccc(N2CC(Oc3ccc(NC(=O)Nc4cccc(Cl)c4)cc3)C2)c1-n1cccc1 [Example 133, Methyl 3-(3-(4-(3-(3-chlorophenyl)ureido)phenoxy)azetidin-1-yl)-2-(1H-pyrrol-1-yl)benzoate]	> 50
O=C(Nc1ccc(OC2CN(c3cccc(C(=O)O)c3-n3cccc3)C2)cc1)Nc1cccc(Cl)c1 [Example 134, 3-(3-(4-(3-(3-chlorophenyl)ureido)phenoxy)azetidin-1-yl)-2-(1H-pyrrol-1-yl)benzoic acid]	10 to 30
COC(=O)c1cccc(N2CC(Oc3ccc(NC(=O)Nc4ccccc4Cl)cc3)C2)c1-n1cccc1 [Example 135, Methyl 3-(3-(4-(3-(2-chlorophenyl)ureido)phenoxy)azetidin-1-yl)-2-(1H-pyrrol-1-yl)benzoate]	< 10
O=C(Nc1ccc(OC2CN(c3cccc(C(=O)O)c3-n3cccc3)C2)cc1)Nc1ccccc1Cl [Example 136, 3-(3-(4-(3-(2-chlorophenyl)ureido)phenoxy)azetidin-1-yl)-2-(1H-pyrrol-1-yl)benzoic acid]	< 10

Structure (SMILES)	inhibition at 50 µM [%]
COC(=O)c1cccc(N2CC(Oc3ccc(NC(=O)Nc4cccc(C#N)c4)cc3)C2)c1-n1cccc1 [Example 137, Methyl 3-(3-(4-(3-(3-cyanophenyl)ureido)phenoxy)azetidin-1-yl)-2-(1H-pyrrol-1-yl)benzoate]	> 50
N#Cc1cccc(NC(=O)Nc2ccc(OC3CN(c4cccc(C(=O)O)c4-n4cccc4)C3)cc2)c1 [Example 138, 3-(3-(4-(3-(3-cyanophenyl)ureido)phenoxy)azetidin-1-yl)-2-(1H-pyrrol-1-yl)benzoic acid]	< 10
COC(=O)c1cccc(N2CC(OCc3ccc(OC)cc3)C2)c1-n1cccc1 [Example 139, Methyl 3-(3-((4-methoxybenzyl)oxy)azetidin-1-yl)-2-(1H-pyrrol-1-yl)benzoate]	< 10
COC(=O)c1cccc(N2CC(OCc3cscn3)C2)c1-n1cccc1 [Example 140]	10 to 30
O=C(O)c1cccc(N2CC(OCc3cscn3)C2)c1-n1cccc1 [Example 141]	< 10
COC(=O)c1cccc(N2CC(OCc3cnccn3)C2)c1-n1cccc1 [Example 142]	< 10
O=C(O)c1cccc(N2CC(OCc3cnccn3)C2)c1-n1cccc1 [Example 143]	< 10
COC(=O)c1cccc(N2CC(OCC(=O)Nc3ccccc3)C2)c1-n1cccc1 [Example 144, Methyl 3-(3-(2-oxo-2-(phenylamino)ethoxy)azetidin-1-yl)-2-(1H-pyrrol-1-yl)benzoate]	10 to 30
O=C(COC1CN(c2cccc(C(=O)O)c2-n2cccc2)C1)Nc1ccccc1 [Example 145, 3-(3-(2-oxo-2-(phenylamino)ethoxy)azetidin-1-yl)-2-(1H-pyrrol-1-yl)benzoic acid]	< 10
O=C(O)c1cccc(N2CC(OC(=S)Nc3ccc(Cl)cc3)C2)c1-n1cccc1 [Example 148, 3-(3-(((4-chlorophenyl)thiocarbamoyl)oxy)azetidin-1-yl)-2-(1H-pyrrol-1-yl)benzoic acid]	< 10
COC(=O)c1cccc(N2CC(OC(=O)NC3CCCCC3)C2)c1-n1cccc1 [Example 149, Methyl 3-(3-((cyclohexylcarbamoyl)oxy)azetidin-1-yl)-2-(1H-pyrrol-1-yl)benzoate]	10 to 30
O=C(NC1CCCCC1)OC1CN(c2cccc(C(=O)O)c2-n2cccc2)C1 [Example 150, 3-(3-((cyclohexylcarbamoyl)oxy)azetidin-1-yl)-2-(1H-pyrrol-1-yl)benzoic acid]	< 10
COC(=O)c1cccc(N2CC(OC(=O)Nc3ccc(C4CNCCO4)c(F)c3)C2)c1-n1cccc1 (stereo not drawn) [Example 151, Methyl 3-(3-(((3-fluoro-4-(morpholin-2-yl)phenyl)carbamoyl)oxy)azetidin-1-yl)-2-(1H-pyrrol-1-yl)benzoate]	10 to 30
COC(=O)c1cccc(N2CC(OC(=O)NC3CC3)C2)c1-n1cccc1 [Example 155, Methyl 3-(3-((cyclopropylcarbamoyl)oxy)azetidin-1-yl)-2-(1H-pyrrol-1-yl)benzoate]	10 to 30
COC(=O)c1cccc(N2CC(OC(=S)Nc3ccc(Br)cc3)C2)c1-n1cccc1 [Example 156, Methyl 3-(3-(((4-bromophenyl)thiocarbamoyl)oxy)azetidin-1-yl)-2-(1H-pyrrol-1-yl)benzoate]	30 to 50
O=C(O)c1cccc(N2CC(OC(=S)Nc3ccc(Br)cc3)C2)c1-n1cccc1 [Example 157, 3-(3-(((4-bromophenyl)thiocarbamoyl)oxy)azetidin-1-yl)-2-(1H-pyrrol-1-yl)benzoic acid]	< 10
COC(=O)c1cccc(N2CC(OC(=S)Nc3ccc(OC)cc3)C2)c1-n1cccc1 [Example 158, Methyl 3-(3-(((4-methoxyphenyl)thiocarbamoyl)oxy)azetidin-1-yl)-2-(1H-pyrrol-1-yl)benzoate]	> 50
COc1ccc(NC(=S)OC2CN(c3cccc(C(=O)O)c3-n3cccc3)C2)cc1 [Example 159, 3-(3-(((4-methoxyphenyl)thiocarbamoyl)oxy)azetidin-1-yl)-2-(1H-pyrrol-1-yl)benzoic acid]	< 10
CCNC(=S)OC1CN(c2cccc(C(=O)OC)c2-n2cccc2)C1 [Example 160, Methyl 3-(3-((ethylthiocarbamoyl)oxy)azetidin-1-yl)-2-(1H-pyrrol-1-yl)benzoate]	30 to 50
